Data as given in patent US11926628B2 (Gilead Sciences, Inc., priority 2021, dated 2024).

Experiments:
human DGKα = human DGKα (Homo sapiens (Human), UniProt P23743); assay: DGKα Biochemical Activity Assay (ADP-Glo); settings: recombinant DGKα 1 nM, 100 μM ATP, 18:1 DAG/POPS/octylglucoside micelles, 1 hour at 25° C.; geometric mean; read-out: HTBS DGKa 1X ATP KM IC50
Procedure, shortened: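 Recombinant DGKα (1 nM final) was preincubated with compound for 15 min, then reacted for 1 h at 25 °C with 100 μM ATP and octylglucoside micelles of 0.85 mM 18:1 DAG and 6.75 mM POPS in pH 7.2 MOPS with 5 mM MgCl2. ADP formed was read by ADP-Glo luminescence. IC50 came from four-parameter fits normalized to DMSO and 50 μM CU3, and values were geometric means.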

[1] = tested on: Jurkat NFκB-luciferase cells; assay: Jurkat NFκB-Luciferase Assay; assay type: cell-based; settings: Homo sapiens; Jurkat NFκB-luciferase cells activated with anti-CD3 antibody (OKT3), 2.5 hrs at 37° C.; geometric mean; read-out: DGK NFKb Luciferase EC50
Procedure, shortened: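 Jurkat NFκB-luciferase reporter cells stimulated on plate-bound anti-CD3 (5 ug/ml coating) with compound, 2.5 hrs at 37° C then 30 min at 25° C; luminescence read with One-Glo Ex. Normalized to DMSO (basal) and 1 micromolar compound (maximum) controls; EC50 from four-parameter fit, geometric mean across experiments.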

human DGKα, sequence (P23743 whole entry): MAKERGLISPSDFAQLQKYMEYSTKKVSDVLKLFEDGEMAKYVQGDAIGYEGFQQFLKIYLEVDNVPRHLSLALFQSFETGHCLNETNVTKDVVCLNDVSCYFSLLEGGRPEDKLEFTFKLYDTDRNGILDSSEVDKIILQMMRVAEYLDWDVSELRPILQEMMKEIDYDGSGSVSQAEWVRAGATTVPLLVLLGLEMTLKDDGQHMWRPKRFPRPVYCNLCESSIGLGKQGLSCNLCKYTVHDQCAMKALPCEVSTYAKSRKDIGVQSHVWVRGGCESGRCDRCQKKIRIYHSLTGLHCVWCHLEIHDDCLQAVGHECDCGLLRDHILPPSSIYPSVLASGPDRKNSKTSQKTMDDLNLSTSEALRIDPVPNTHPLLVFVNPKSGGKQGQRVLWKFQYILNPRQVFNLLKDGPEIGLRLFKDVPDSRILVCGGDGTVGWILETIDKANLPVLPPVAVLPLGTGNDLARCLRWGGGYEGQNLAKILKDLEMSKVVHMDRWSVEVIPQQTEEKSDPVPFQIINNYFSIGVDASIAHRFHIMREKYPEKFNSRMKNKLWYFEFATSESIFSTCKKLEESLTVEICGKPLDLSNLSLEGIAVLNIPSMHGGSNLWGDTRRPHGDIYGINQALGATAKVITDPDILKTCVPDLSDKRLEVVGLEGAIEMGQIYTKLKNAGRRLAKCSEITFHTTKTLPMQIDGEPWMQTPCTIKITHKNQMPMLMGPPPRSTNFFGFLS

SMILES	IC50 (human DGKα) [nM]	EC50 [1] [nM]
Fc1cncc2c1c(N1CCCc3c(C#CC4(C(F)(F)F)CC4)cccc31)nc1nncn12 [Example 87, 10-fluoro-8-[5-[2-[1-(trifluoromethyl)cyclopropyl]ethynyl]-3,4-dihydro-2H-quinolin-1-yl]-2,4,5,7,12-pentazatricyclo[7.4.0.02,6]trideca-1(13),3,5,7,9,11-hexaene]	8.6	0.839
CCN(c1cc(F)cc(C#CC(C)(C)C(F)(F)F)c1)c1nc2nncn2c2cncc(F)c12 [Example 88, N-ethyl-10-fluoro-N-[3-fluoro-5-(4,4,4-trifluoro-3,3-dimethyl-but-1-ynyl)phenyl]-2,4,5,7,12-pentazatricyclo[7.4.0.02,6]trideca-1(13),3,5,7,9,11-hexaen-8-amine]	41.1	1.22
CCN(c1cc(F)cc(C#CC2(C)CC2)c1)c1nc2nncn2c2cncc(F)c12 [Example 89, N-ethyl-10-fluoro-N-[3-fluoro-5-[2-(1-methylcyclopropyl)ethynyl]phenyl]-2,4,5,7,12-pentazatricyclo[7.4.0.02,6]trideca-1(13),3,5,7,9,11-hexaen-8-amine]	6.18	0.655
CCN(c1cc(F)cc(C#CC2(C(F)(F)F)CC2)c1)c1nc2nncn2c2cncc(F)c12 [Example 90, N-ethyl-10-fluoro-N-[3-fluoro-5-[2-[1-(trifluoromethyl)cyclopropyl]ethynyl]phenyl]-2,4,5,7,12-pentazatricyclo[7.4.0.02,6]trideca-1(13),3,5,7,9,11-hexaen-8-amine]	12	0.715
CN(c1cc(F)cc(C#CC2(C)CC2)c1)c1nc2nncn2c2cncc(F)c12 [Example 91, 10-fluoro-N-[3-fluoro-5-[2-(1-methylcyclopropyl)ethynyl]phenyl]-N-methyl-2,4,5,7,12-pentazatricyclo[7.4.0.02,6]trideca-1(13),3,5,7,9,11-hexaen-8-amine]	6.25	1.25
CN(c1cc(F)cc(C#CC(C)(C)O)c1)c1nc2nncn2c2cncc(F)c12 [Example 92, 4-[3-fluoro-5-[(10-fluoro-2,4,5,7,12-pentazatricyclo[7.4.0.02,6]trideca-1(13),3,5,7,9,11-hexaen-8-yl)-methyl-amino]phenyl]-2-methyl-but-3-yn-2-ol]	17.4	32.1
CN(c1cc(F)cc(C#CC2(C(F)(F)F)CC2)c1)c1nc2nncn2c2cncc(F)c12 [Example 93, 10-fluoro-N-[3-fluoro-5-[2-[1-(trifluoromethyl)cyclopropyl]ethynyl]phenyl]-N-methyl-2,4,5,7,12-pentazatricyclo[7.4.0.02,6]trideca-1(13),3,5,7,9,11-hexaen-8-amine]	7.17	0.763
Cc1nnc2nc(N3CCOCc4c(C#CC5(C(C)(F)F)CC5)cccc43)c3c(F)cncc3n12 [Example 94, 6-((1-(1,1-difluoroethyl)cyclopropyl)ethynyl)-1-(6-fluoro-1-methylpyrido[4,3-e][1,2,4]triazolo[4,3-a]pyrimidin-5-yl)-1,2,3,5-tetrahydrobenzo[e][1,4]oxazepine]	25.1	3.39
Cc1nnc2nc(N3CCOCc4c(C#Cc5cnn(C)c5)cccc43)c3c(F)cncc3n12 [Example 95, 1-(6-fluoro-1-methylpyrido[4,3-e][1,2,4]triazolo[4,3-a]pyrimidin-5-yl)-6-((1-methyl-1H-pyrazol-4-yl)ethynyl)-1,2,3,5-tetrahydrobenzo[e][1,4]oxazepane]	6.95	31.2
Cc1nnc2nc(N3CCOCc4c(C#CC(C)(C)C#N)cccc43)c3c(F)cncc3n12 [Example 96, 4-(1-(6-fluoro-1-methylpyrido[4,3-e][1,2,4]triazolo[4,3-a]pyrimidin-5-yl)-1,2,3,5-tetrahydrobenzo[e][1,4]oxazepin-6-yl)-2,2-dimethylbut-3-ynenitrile]	3.84	6.63
Cc1nnc2nc(N3CCCc4c(C#CC(C)(C)C#N)cccc43)c3c(F)cncc3n12 [Example 97, 4-(1-(6-fluoro-1-methylpyrido[4,3-e][1,2,4]triazolo[4,3-a]pyrimidin-5-yl)-1,2,3,4-tetrahydroquinolin-5-yl)-2,2-dimethylbut-3-ynenitrile]	4.65	4.1
Cc1nnc2nc(N3CCCc4c(C#CC(C)(C)O)cccc43)c3cc(F)cnc3n12 [Example 98, 4-(1-(3-fluoro-9-methylpyrido[3,2-e][1,2,4]triazolo[4,3-a]pyrimidin-5-yl)-1,2,3,4-tetrahydroquinolin-5-yl)-2-methylbut-3-yn-2-ol]	49	26.2
Cc1nnc2nc(N(CC(F)F)c3cc(F)cc(C#CC(C)(C)O)c3)c3cc(F)cnc3n12 [Example 99, 4-(3-((2,2-difluoroethyl)(3-fluoro-9-methylpyrido[3,2-e][1,2,4]triazolo[4,3-a]pyrimidin-5-yl)amino)-5-fluorophenyl)-2-methylbut-3-yn-2-ol]	38.9	53.1
Cc1nnc2nc(N3CCCc4c(C#CC5(C(F)F)CC5)cccc43)c3cc(F)cnc3n12 [Example 100, 5-(5-((1-(difluoromethyl)cyclopropyl)ethynyl)-3,4-dihydroquinolin-1(2H)-yl)-3-fluoro-9-methylpyrido[3,2-e][1,2,4]triazolo[4,3-a]pyrimidine]	7.93	2.26
Cc1nnc2nc(N3CCCc4c(C#CC5(C(F)(F)F)CC5)cccc43)c3cc(F)cnc3n12 [Example 101, 3-fluoro-9-methyl-5-(5-((1-(trifluoromethyl)cyclopropyl)ethynyl)-3,4-dihydroquinolin-1(2H)-yl)pyrido[3,2-e][1,2,4]triazolo[4,3-a]pyrimidine]	6.21	1.01
Cc1nnc2nc(N3CCCc4c(C#CC(C)(C)C(F)(F)F)cccc43)c3cc(F)cnc3n12 [Example 102, 3-fluoro-9-methyl-5-(5-(4,4,4-trifluoro-3,3-dimethylbut-1-yn-1-yl)-3,4-dihydroquinolin-1(2H)-yl)pyrido[3,2-e][1,2,4]triazolo[4,3-a]pyrimidine]	21.4	1.8
Cc1nnc2nc(N(CC(F)F)c3cc(F)cc(C#CC(C)(C)C(F)(F)F)c3)c3cc(F)cnc3n12 [Example 103, N-(2,2-difluoroethyl)-3-fluoro-N-(3-fluoro-5-(4,4,4-trifluoro-3,3-dimethylbut-1-yn-1-yl)phenyl)-9-methylpyrido[3,2-e][1,2,4]triazolo[4,3-a]pyrimidin-5-amine]	9.34	1.64
Cc1nnc2nc(N(CC(F)F)c3cc(F)cc(C#CC4(C)CC4)c3)c3cc(F)cnc3n12 [Example 104, N-(2,2-difluoroethyl)-3-fluoro-N-(3-fluoro-5-((1-methylcyclopropyl)ethynyl)phenyl)-9-methylpyrido[3,2-e][1,2,4]triazolo[4,3-a]pyrimidin-5-amine]	14.5	3.53
Cc1nnc2nc(N(CC(F)F)c3cc(F)cc(C#CC4(C(F)F)CC4)c3)c3cc(F)cnc3n12 [Example 105, N-(2,2-difluoroethyl)-N-(3-((1-(difluoromethyl)cyclopropyl)ethynyl)-5-fluorophenyl)-3-fluoro-9-methylpyrido[3,2-e][1,2,4]triazolo[4,3-a]pyrimidin-5-amine]	13.3	5.57
Cc1nnc2nc(N(CC(F)F)c3cc(F)cc(C#CC4(C(F)(F)F)CC4)c3)c3cc(F)cnc3n12 [Example 106, N-(2,2-difluoroethyl)-3-fluoro-N-(3-fluoro-5-((1-(trifluoromethyl)cyclopropyl)ethynyl)phenyl)-9-methylpyrido[3,2-e][1,2,4]triazolo[4,3-a]pyrimidin-5-amine]	6.42	2.25
Cc1nnc2nc(N3CCCc4c(C#CC5(C)CC5)cccc43)c3cc(F)cnc3n12 [Example 107, 3-fluoro-9-methyl-5-(5-((1-methylcyclopropyl)ethynyl)-3,4-dihydroquinolin-1(2H)-yl)pyrido[3,2-e][1,2,4]triazolo[4,3-a]pyrimidine]	11.9	1.85
Fc1cnc2c(c1)c(N1CCCc3c(C#CC4(C(F)F)CC4)cccc31)nc1nncn12 [Example 108, 5-(5-((1-(difluoromethyl)cyclopropyl)ethynyl)-3,4-dihydroquinolin-1(2H)-yl)-3-fluoropyrido[3,2-e][1,2,4]triazolo[4,3-a]pyrimidine]	3.43	3.08
CC1(C#Cc2cccc3c2CCCN3c2nc3nncn3c3ncc(F)cc23)CC1 [Example 109, 3-fluoro-5-(5-((1-methylcyclopropyl)ethynyl)-3,4-dihydroquinolin-1(2H)-yl)pyrido[3,2-e][1,2,4]triazolo[4,3-a]pyrimidine]	5.62	1.75
COc1ccc2c(N(C)c3cccc(C#CC(C)(C)O)c3)nc3nncn3c2n1 [Example 114, 4-(3-((2-methoxypyrido[3,2-e][1,2,4]triazolo[4,3-a]pyrimidin-5-yl)(methyl)amino)phenyl)-2-methylbut-3-yn-2-ol]	75.4	27
COc1ccc2c(N(C)c3cccc(-c4ccc(S(F)(F)(F)(F)F)cc4)c3)nc3nncn3c2n1 [Example 115, 2-methoxy-N-methyl-N-(4′-(pentafluoro-16-sulfaneyl)-[1,1′-biphenyl]-3-yl)pyrido[3,2-e][1,2,4]triazolo[4,3-a]pyrimidin-5-amine]	448	1.74
